From article PMC10082216 (Nature Communications, 2023)
Read-outs that look alike come from different tables or passages of the source.

Assay: TD-6450 phase I clinical study (SAD/MAD): pharmacokinetics
Assay type: in vivo, human
Conditions: human
Protocol: Primary and secondary outcomes were pre-defined as follows: Safety and tolerability as a primary outcome, pharmacokinetics as a secondary outcome. Safety and tolerability were evaluated using standard measures, including adverse event (AE) monitoring, clinical laboratory tests (hematology, serum chemistry, coagulation, and urinalysis), vital signs, physical examinations, and 12-lead electrocardiograms (ECGs). […]
This study was conducted in two parts, Part A (SAD) and Part B (MAD). For the Part A, the age of enrolled subjects ranged from 20 to 60 years, with a mean age range of 32.1 to 46.2 years. Most subjects were male (73 total subjects) and most were white (55 subjects) or black (22 subjects). For Part B of the study, ages ranged from 23 to 60 years with a similar mean age across treatment groups. Most subjects were male (25 total subjects) and all were either white (18 subjects) or black (12 subjects). For each part of the study, the mean body mass index (BMI) and creatinine clearance were similar across treatment groups. […] Part A: Healthy subjects were sequentially enrolled and randomly assigned to each dose cohort (up to 10 dose-ascending cohorts were planned, including a fed arm in the food effect cohort) to receive either a single dose of TD-6450 or placebo. For each dose cohort, 8 subjects were randomized in a 3:1 ratio (6 subjects received TD-6450 and 2 subjects received placebo). The starting dose of TD-6450 was 0.5 mg with a planned maximum dose of 1000 mg. Upon review of the 500-mg cohort PK data, the decision was made to not escalate to the 1000-mg cohort because of exposure saturation at ≥ 500 mg. The following doses were administered: 0.5 mg, 1.5 mg, 5 mg, 15 mg, 30 mg, 60 mg, 120 mg, 240 mg, and 500 mg. Part B: Healthy subjects were sequentially enrolled in 3 ascending dose cohorts (TD-6450 60 mg, 120 mg, and 240 mg) and randomly assigned to receive either TD-6450 or placebo as once daily doses for 14 days. For each dose cohort, 10 subjects were randomized in a 4:1 ratio (8 subjects received TD-6450 and 2 subjects received placebo). Blinded safety, tolerability, and available PK data after each dose cohort were reviewed by the Safety Data Review Committee (SDRC) before escalation to the next dosing cohort for both part A and B. Subjects of the clinical study were randomly assigned to each cohort. Randomizations codes were assigned to the subjects. All study subjects, study investigators, and the sponsor’s staff involved in the conduct of the study were blinded to treatment assignment. The only personnel who had access to the randomization code before database lock were: The pharmacist or pharmacy staff member who prepared drug or placebo capsules for administration to the subject according to the randomization code and the bioanalytical contract laboratory that analyzed the PK samples (plasma and urine).

CNC(=O)N1C[C@@H](C)N(c2ccc(C(=O)Nc3ccc(-c4ccc(-c5c[nH]c([C@@H]6CCCN6C(=O)[C@@H](NC(=O)OC)C(C)C)n5)cc4)c(OC(F)(F)F)c3)cn2)C[C@@H]1C [TD-6450]
concentration at 144 h (female, plasma, oral, 15 mg, Female subjects, SAD arm NCT02022306, Dose 15.00, 144 Hours, read-out: Concentration): 4 ng/mL
concentration at 168 h (female, plasma, oral, 15 mg, Female subjects, SAD arm NCT02022306, Dose 15.00, 168 Hours, read-out: Concentration): 3.58 ng/mL
concentration at 3 h (female, plasma, oral, 30 mg, Female subjects, SAD arm NCT02022306, Dose 30.00, 3 Hours, read-out: Concentration): 24.8 ng/mL
concentration at 4 h (female, plasma, oral, 30 mg, Female subjects, SAD arm NCT02022306, Dose 30.00, 4 Hours, read-out: Concentration): 40.6 ng/mL
concentration at 6 h (female, plasma, oral, 30 mg, Female subjects, SAD arm NCT02022306, Dose 30.00, 6 Hours, read-out: Concentration): 70.6 ng/mL
concentration at 8 h (female, plasma, oral, 30 mg, Female subjects, SAD arm NCT02022306, Dose 30.00, 8 Hours, read-out: Concentration): 69.5 ng/mL
concentration at 12 h (female, plasma, oral, 30 mg, Female subjects, SAD arm NCT02022306, Dose 30.00, 12 Hours, read-out: Concentration): 45.3 ng/mL
concentration at 15 min (female, plasma, oral, 30 mg, Female subjects, SAD arm NCT02022306, Dose 30.00, 15 Minutes, read-out: Concentration): 0 ng/mL
concentration at 24 h (female, plasma, oral, 30 mg, Female subjects, SAD arm NCT02022306, Dose 30.00, 24 Hours, read-out: Concentration): 34.1 ng/mL
concentration at 48 h (female, plasma, oral, 30 mg, Female subjects, SAD arm NCT02022306, Dose 30.00, 48 Hours, read-out: Concentration): 22.3 ng/mL
concentration at 72 h (female, plasma, oral, 30 mg, Female subjects, SAD arm NCT02022306, Dose 30.00, 72 Hours, read-out: Concentration): 16.1 ng/mL
concentration at 96 h (female, plasma, oral, 30 mg, Female subjects, SAD arm NCT02022306, Dose 30.00, 96 Hours, read-out: Concentration): 10.8 ng/mL
concentration at 120 h (female, plasma, oral, 30 mg, Female subjects, SAD arm NCT02022306, Dose 30.00, 120 Hours, read-out: Concentration): 9.27 ng/mL
concentration at 144 h (female, plasma, oral, 30 mg, Female subjects, SAD arm NCT02022306, Dose 30.00, 144 Hours, read-out: Concentration): 6.93 ng/mL
concentration at 168 h (female, plasma, oral, 30 mg, Female subjects, SAD arm NCT02022306, Dose 30.00, 168 Hours, read-out: Concentration): 5.12 ng/mL
concentration at 1 h (female, plasma, oral, 60 mg, Female subjects, SAD arm NCT02022306, Dose 60.00, 1 Hour, read-out: Concentration): 7.46 ng/mL
concentration at 2 h (female, plasma, oral, 60 mg, Female subjects, SAD arm NCT02022306, Dose 60.00, 2 Hours, read-out: Concentration): 114 ng/mL
concentration at 3 h (female, plasma, oral, 60 mg, Female subjects, SAD arm NCT02022306, Dose 60.00, 3 Hours, read-out: Concentration): 70.5 ng/mL
concentration at 4 h (female, plasma, oral, 60 mg, Female subjects, SAD arm NCT02022306, Dose 60.00, 4 Hours, read-out: Concentration): 94.5 ng/mL
concentration at 6 h (female, plasma, oral, 60 mg, Female subjects, SAD arm NCT02022306, Dose 60.00, 6 Hours, read-out: Concentration): 109 ng/mL
concentration at 8 h (female, plasma, oral, 60 mg, Female subjects, SAD arm NCT02022306, Dose 60.00, 8 Hours, read-out: Concentration): 87.4 ng/mL
concentration at 12 h (female, plasma, oral, 60 mg, Female subjects, SAD arm NCT02022306, Dose 60.00, 12 Hours, read-out: Concentration): 60.5 ng/mL
concentration at 15 min (female, plasma, oral, 60 mg, Female subjects, SAD arm NCT02022306, Dose 60.00, 15 Minutes, read-out: Concentration): 0 ng/mL
concentration at 24 h (female, plasma, oral, 60 mg, Female subjects, SAD arm NCT02022306, Dose 60.00, 24 Hours, read-out: Concentration): 38.9 ng/mL
concentration at 30 min (female, plasma, oral, 60 mg, Female subjects, SAD arm NCT02022306, Dose 60.00, 30 Minutes, read-out: Concentration): 0.74 ng/mL
concentration at 48 h (female, plasma, oral, 60 mg, Female subjects, SAD arm NCT02022306, Dose 60.00, 48 Hours, read-out: Concentration): 29.3 ng/mL
concentration at 72 h (female, plasma, oral, 60 mg, Female subjects, SAD arm NCT02022306, Dose 60.00, 72 Hours, read-out: Concentration): 22.4 ng/mL
concentration at 96 h (female, plasma, oral, 60 mg, Female subjects, SAD arm NCT02022306, Dose 60.00, 96 Hours, read-out: Concentration): 17.2 ng/mL
concentration at 120 h (female, plasma, oral, 60 mg, Female subjects, SAD arm NCT02022306, Dose 60.00, 120 Hours, read-out: Concentration): 12.8 ng/mL
concentration at 144 h (female, plasma, oral, 60 mg, Female subjects, SAD arm NCT02022306, Dose 60.00, 144 Hours, read-out: Concentration): 11.1 ng/mL
concentration at 168 h (female, plasma, oral, 60 mg, Female subjects, SAD arm NCT02022306, Dose 60.00, 168 Hours, read-out: Concentration): 8.61 ng/mL
concentration at 3 h (in vivo, 1.5 mg, Male subjects, SAD arm NCT02022306, Dose 1.50, 3 Hours, read-out: Concentration): 1.48 ng/mL
concentration at 4 h (in vivo, 1.5 mg, Male subjects, SAD arm NCT02022306, Dose 1.50, 4 Hours, read-out: Concentration): 1.92 ng/mL
concentration at 6 h (in vivo, 1.5 mg, Male subjects, SAD arm NCT02022306, Dose 1.50, 6 Hours, read-out: Concentration): 1.07 ng/mL
concentration at 120 h (in vivo, 5 mg, Female subjects, SAD arm NCT02022306, Dose 5.00, 120 Hours, read-out: Concentration): 1.07 ng/mL
concentration at 48 h (in vivo, 5 mg, Male subjects, SAD arm NCT02022306, Dose 5.00, 48 Hours, read-out: Concentration): 1.81 ng/mL
concentration at 120 h (in vivo, 5 mg, Male subjects, SAD arm NCT02022306, Dose 5.00, 120 Hours, read-out: Concentration): 1.48 ng/mL
concentration at 168 h (in vivo, 15 mg, Male subjects, SAD arm NCT02022306, Dose 15.00, 168 Hours, read-out: Concentration): 2.59 ng/mL
concentration at 2 h (in vivo, 30 mg, Male subjects, SAD arm NCT02022306, Dose 30.00, 2 Hours, read-out: Concentration): 8.22 ng/mL
concentration at 30 min (in vivo, 120 mg, Male subjects, SAD arm NCT02022306, Dose 120.00, 30 Minutes, read-out: Concentration (ng/ml)): 1.01 ng/mL
concentration at 168 h (in vivo, 120 mg, Male subjects, SAD arm NCT02022306, Dose 120.00, 168 Hours, read-out: Concentration (ng/ml)): 10.2 ng/mL
concentration at 312 h (in vivo, 240 mg, Male subjects, SAD arm NCT02022306, Dose 240.00, 312 Hours, read-out: Concentration (ng/ml)): 4.88 ng/mL
TD-6450 concentration (in vivo, 48 h): 107.00 ng/mL
TD-6450 concentration (in vivo, 72 h): 273.00 ng/mL
TD-6450 concentration (in vivo, 96 h): 123.00 ng/mL
TD-6450 concentration (in vivo, 120 h): 102.00 ng/mL
TD-6450 concentration (in vivo, 144 h): 74.40 ng/mL
TD-6450 concentration (in vivo, 336 h): 6.38 ng/mL
Cmax (plasma, oral, 60 mg, SAD 60 mg, read-out: Cmax Mean ± SD): 123 ± 60.3 nM
half-life (plasma, oral, 60 mg, SAD 60 mg, read-out: t1/2 Mean ± SD (converted)): 61.4 ± 11.8 h
TD-6450 concentration (male, in vivo): 0.00 ng/mL
TD-6450 concentration (male, in vivo, 2 h): 179.00 ng/mL
TD-6450 concentration (male, in vivo, 3 h): 273.00 ng/mL
TD-6450 concentration (male, in vivo, 4 h): 303.00 ng/mL
TD-6450 concentration (male, in vivo, 6 h): 309.00 ng/mL
TD-6450 concentration (male, in vivo, 12 h): 216.00 ng/mL
TD-6450 concentration (male, in vivo, 24 h): 144.00 ng/mL
TD-6450 concentration (male, in vivo, 48 h): 90.40 ng/mL
TD-6450 concentration (male, in vivo, 72 h): 61.10 ng/mL
TD-6450 concentration (male, in vivo, 96 h): 40.80 ng/mL
